# Results reported in patent US6906179B2, “Antibody to SNIP1” (The General Hospital Corporation, priority 1999, dated 2005).
# Like-named read-outs stand apart in the source and are kept apart here. *1 amine or outer side, *2 acyl side, *3 side chain or, on linkers, in order; H or OH if unused. Where a SMILES comes first, the peptide text is derived from it. Bridges are numbered along the chain shown (N, C = ends). Roman numbers before positions name the chains, in order. [ ]: non-standard residue; d: D form. Actinocin(9to1) = Cc1c2oc3c(C)ccc(C(=O)[*:1])c3nc-2c(C(=O)[*:2])c(N)c1=O; NMeV = CN[C@H](C(=O)O)C(C)C; Sar = CNCC(=O)O
# Legend:
# endogenous HEF1 [1] = assay: TGF-β regulation of endogenous HEF1 in H9 cells, Western blot and pulse chase; format: cell-based, human
# Protocol: The ability of TGF-β to regulate the protein level of endogenous HEF1 in TGF-β responsive cells was tested. The human T lymphoblastoid H9 cells were either not exposed to TGF-β or pre-treated with TGF-β for different time periods. Cells were then harvested at the same time and HEF1 protein level was determined by Western blot using anti-HEF1 antibody. […] The predominant form of HEF1 labeled within the 30 min pulse period is p105HEF1. The pulse-labeled p105HEF1 was reduced to basal level within 60 min in TGF-β-stimulated cells but took more than 120 min in the absence of TGF-β. Thus, TGF-β can enhance HEF1 degradation in native H9 cells.
# HEF1 mRNA = assay: Induction of HEF1 mRNA in HaCaT cells; format: cell-based
# endogenous HEF1 [2] = assay: TGF-β regulation of endogenous HEF1 in A549 lung carcinoma cells; format: cell-based
# Protocol: In A549 lung carcinoma cells, which predominantly express p115HEF1, a decrease of endogenous p115HEF1 was detected after 15 min exposure to TGF-β. Furthermore, LLnL was able to block the TGF-β induced decrease of endogenous HEF1, indicating the involvement of the proteasome in this event. The change of p105HEF1 in response to TGF-β was also observed, but not as apparent as p115HEF1 due to the very low level of p105HEF1 in this cell line. It was noted that the steady-state level of both p115HEF1 and p105HEF1 increased after 3 hrs of TGF-β stimulation. […] To directly test this, we performed a time-course Northern blot on HEF1 mRNA isolated from A549 cells treated with TGF-β for different time periods. […] Thus, TGF-β down-regulates HEF1 protein level via proteasomal degradation and also induces HEF1 mRNA level via transcriptional activation, which may serve as a negative feedback mechanism to restore HEF1 protein level.
# ischemic brain injury [3] = conditions: cited from earlier work
# ischemic brain injury [4] = conditions: single ICV injection of 1 μg/kg at 2, 4 or 6 hour before; assessed 48 hours after injury; cited from earlier work
# ischemic brain injury [5] = conditions: cited from earlier work; remark: listed apart in the source
# HEF1 protein level = assay: Smad3-induced proteasomal degradation of HEF1 in 293 cells; format: cell-based; conditions: for Smad3-induced reduction (degradation) of HEF1 protein level: 293 cells, presence or absence of type I receptors
# Description: Two different forms of HEF1, p115HEF1 and p105HEF1, have been previously reported to be derived from differential phosphorylation (Law et al., 1996, Mol. Cell. Boil. 16: 3327; Minegishi et al., 1996, J. Exp. Med. 184: 1365; Lae et al., 1998, supra). Both forms of HEF1 were detected at a similar level in 293 cells after HEF1 transfection for 24 hrs (data not shown). However, p115HEF1 was the predominant form that associates with Smad3, and to a much lesser extent, with Smad1 and Smad2. Neither p115HEF1 nor p105HEF1 was detected in the immunoprecipitates of Smad4.
# It was tested whether the observed reduction of HEF1 level by Smad3 is regulated by TGF-β and activin type I receptor activation and whether the reduction is mediated by proteasomal degradation. The Smad3-mediated reduction of HEF1 protein level was further enhanced in the presence of the overexpressed wildtype TGF-β type I receptor and wildtype activin type I receptor, as well as the constitutively active mutant TGF-β type I receptor (R4T204D) and the activated mutant activin type I receptor (R2T206D)). […]
# Like other Smad family proteins, Smad3 can be divided into three subdomains: an amino-terminal MH1 domain, a central linker region and a carboxyl-terminal MH2 domain The N-terminal MH1 domain of Smad3 (Smad3N) has the ability to bind to specific DNA sequences (Massague, 1998, supra; Derynck et al., 1998, Cell 95: 737; Wrana, 2000, Cell 100: 189), whereas the C-terminal MH2 domain interacts with the TGF-β type I receptor as well as multiple transcriptional regulators (Massague, 1998, supra; Derynck, 1998, supra; Wrana, 2000, supra). […] In cells that were not treated with LLnL, p115HEF1 and smaller amount of p105HEF1 were detected in the immunoprecipitates of Smad3N, Smad3C and full length Smad3, with the strongest HEF1 signal detected in the immunoprecipitates of Smad3C. […] In fact, when LLnL stabilizes HEF1, the highest amount of HEF1 was detected in the immunoprecipitates of full length Smad3. […]
# rat sympathetic neurons = assay: OP-1 induced dendritic growth of rat sympathetic neurons; format: cell-based; conditions: for inhibition of OP-1 induced dendritic growth: reversible peptidyl aldehyde inhibitors
# Protocol: If Smad1 and DPC4 signal through proteasome mediated proteolysis, proteasome inhibitors should block the signaling of BMPs. We thus directly tested the effects of the proteasome inhibitors on the signaling pathways of BMPs that signal via Smad1 activation. […] The EC50 for the inhibitory activity of lactacystin was ˜100 nM and maximal effects were obtained with 4-6 hour pretreatments (not shown).
# To determine the time course of sensitivity to lactacystin with respect to the signaling pathway of OP-1, lactacystin was added to the media at various time points after the addition of OP-1 (FIG. 32, bottom panel B).
# [6] = tested on: biological activities of BMPs and TGF-beta; assay: Inhibition of the biological activities of BMPs and TGF-beta (summary statement)
# proteasome = conditions: LLnL versus LLM; cited from earlier work
# SNIP-1 protein level = assay: ALK3Q233D-induced degradation of SNIP-1 in transfected COS cells, Western blot; format: cell-based; conditions: inhibitors added 10 hours before cell lysis; ALK3Q233D transfected COS cells
# Description: The novel Smad1 interactor is a nuclear proteip (termed as Smad1 Nuclear Interactor Protein 1, SNIP-1, SEQ ID No. 3), with a carboxyterminal domain that is highly homologous to the aminoterminus of the nuclear inhibitor of protein phosphatase 1 (NIPP-1) (Wang & Lechleider, unpublished) (FIG. 31A & C). NIPP-1 (VanEynde et al., 1995) is known to be rapidly processed into smaller heat-stable intermediates, a process that may be mediated by proteasome (see Discussion in Jagiello et al., 1995). SNIP-1 is a strong interactor of Smad1, that also binds to both antizyme and HsN3 in the yeast two-hybrid assays (FIG. 311B).
# Forty-eight hours after transfection, COS cells were lysed in an equal volume of lysis buffer (300 ul/plate), and the total protein concentration of each sample was measured. No major difference in protein concentration was detected among the lysates. The protein level of SNIP-1 in 100 ug of total protein lysate was determined by Western blot using anti-T7 monoclonal antibody. […] Such a decrease is dependent upon the coexpression of Smad1, DPC4 and antizyme, since replacing each of these three proteins with an unrelated protein (β galactosidase) abolishes such a decrease in ALK3Q233D transfected cells (FIG. 31D, top panel, lanes 9-14). […] The total amount of proteins in the tested lanes was normalized before loading, and equal loading was confirmed by Western blot using anti-a tubulin (FIG. 31D, bottom panel).
# To determine whether the decrease in the level of SNIP-1 protein level is caused by proteasome mediated degradation, we used inhibitors of the proteasome. Proteasome inhibitors that selectively block different proteolytic activities of the proteasome are powerful tools for studying the role of proteasomes in many aspects of cell growth, differentiation and apoptosis (Hilt et al., 1993; Palomebella et al., 1994; Figueiredo-Pereira et al., 1994; Thraenckner et al., 1994; Read et al., 1995; Grimm et al., 1996, for reviews, see Coux et al., 1996). […]
# [7] = tested on: calpain, cathepsin B, chymotrypsin, trypsin and papain; conditions: cited from earlier work
compound,measurement,setting,value
TGF-β,steady-state levels of p115 and p105 HEF1,endogenous HEF1 [1],started to decrease after 30 min exposure
same,time for pulse-labeled p105HEF1 to be reduced to basal level,"endogenous HEF1 [1]; TGF-β-stimulated, 30 min pulse",≤ 60 min
same,p105HEF1 level,endogenous HEF1 [1]; after 3 hrs of TGF-β treatment,greatly reduced
same,p115HEF1 level,endogenous HEF1 [1]; after 3 hrs of TGF-β treatment,almost undetectable
same,HEF1 mRNA,HEF1 mRNA,induction of HEF1 mRNA
same,exposure after which decrease of endogenous p115HEF1 was detected,endogenous HEF1 [2],15 min
same,steady-state level of p115HEF1 and p105HEF1,endogenous HEF1 [2]; after 3 hrs of TGF-β stimulation,increased
same,"level of HEF1 mRNA, Northern blot",endogenous HEF1 [2]; as early as 1 hr after treatment,dramatically increased
"TGF-β1: prototypical member of the TGFβ family of cytokines, exogenously administered",neuroprotection,ischemic brain injury [3]; 0.5 or 50 ng ICV,no neuroprotection
same,CA1 pyramidal cell survival,ischemic brain injury [3]; same amount (4 ng) by ICV,48%
same,pyramidal cell survival,"ischemic brain injury [3]; single 4 ng intrahippocampal injection 1 h prior to TFGI, assessed 7 days after",50%
same,decrease in ischemic area of the neocortex,ischemic brain injury [4],≈ 10%
same,deficits in water maze learning ability and asymmetry in somatosensory functions,"ischemic brain injury [5]; 10 ng ICV, first 10 days after injury",improved
same,intensity of microglial activation,"ischemic brain injury [5]; 10 ng, 48 hours after ischemic injury",significantly reduced
same,neuroprotection,ischemic brain injury [5]; 2 or 50 ng on the same schedule,did not provide significant neuroprotection
same,area of cortical infarction,ischemic brain injury [5]; dose response,bell-shaped dose-response effect
same,"neuroprotection in cortex, thalamus, striatum and dentate gyrus","ischemic brain injury [5]; single ICV dose of 10 ng 2 hours after ischemic injury, assessed 5 days after",significant neuroprotection
same,CA1-CA4 hippocampal neurons,ischemic brain injury [5]; single ICV dose of 10 ng 2 hours after ischemic injury,not protected
N-acetyl-L-Leucinyl-L-Leucinal-L-norleucinal [LLnL],Smad3-induced reduction (degradation) of HEF1 protein level,HEF1 protein level,able to block
same,Smad3N-mediated reduction of p115HEF1,HEF1 protein level; HEF1 co-expressed with Smad3N,blocked
same,"inhibition of OP-1 activity, relative concentration",rat sympathetic neurons; LLnL versus LLM,inhibited OP-1 activity at lower concentrations than LLM
same,inhibition of OP-1 induced dendritic growth,rat sympathetic neurons,Inhibition of OP-1 induced dendritic growth was also observed
same,biological activities of BMPs and TGF-beta,[6],able to inhibit
same,potency as inhibitor of proteasome activity,proteasome,more potent inhibitor of proteasome activity than LLM
same,ALK3Q233D induced decrease of SNIP-1 protein level,SNIP-1 protein level,reversed
same,TGF-β induced decrease of endogenous HEF1,endogenous HEF1 [2],able to block
"Cc1c2oc3c(C)ccc(C(=O)N[C@@H]4C(=O)N[C@H](C(C)C)C(=O)N5CCC[C@H]5C(=O)N(C)CC(=O)N(C)[C@@H](C(C)C)C(=O)O[C@@H]4C)c3nc-2c(C(=O)N[C@@H]2C(=O)N[C@H](C(C)C)C(=O)N3CCC[C@H]3C(=O)N(C)CC(=O)N(C)[C@@H](C(C)C)C(=O)O[C@@H]2C)c(N)c1=O [actinomycin D, reference compound] (I: T[dV]P[Sar][NMeV] / II: T[dV]P[Sar][NMeV]; ester I:1-I:C, II:1-II:C; linker I:N-II:N via Actinocin(9to1))",increase of steady-state p115HEF1 and p105HEF1 after 3 hrs of TGF-β stimulation,endogenous HEF1 [2],can be inhibited
CC(=O)N[C@@H](CSC(=O)[C@]1([C@@H](O)C(C)C)NC(=O)[C@H](C)[C@@H]1O)C(=O)O [lactacystin],Smad3-induced reduction (degradation) of HEF1 protein level,HEF1 protein level,blocked
same,EC50,"rat sympathetic neurons; Sympathetic neuron, rat sympathetic neurons, read-out: EC50 for the inhibitory activity on OP-1 induced dendritic growth",~100 nM
same,OP-1 induced dendritic growth,rat sympathetic neurons; added later than 3 hrs after OP-1,resistance to the inhibitory effects developed after 3 hrs and are apparent after 8 hrs
same,OP-1 induced dendritic growth,rat sympathetic neurons; added within 3 hrs of OP-1 exposure,fully inhibited
same,ability to form dendrites in the presence of OP-1 or BMP-6,rat sympathetic neurons; pretreatment for 4 hours,concentration-dependent decrease
same,axonal growth or cell survival,rat sympathetic neurons; rat sympathetic neurons,did not affect
same,biological activities of BMPs and TGF-beta,[6],able to inhibit
same,activity of other proteases,[7],does not inhibit
same,ALK3Q233D induced decrease of SNIP-1 protein level,SNIP-1 protein level,reversed
CSCCC(C=O)NC(=O)C(CC(C)C)NC(=O)C(CC(C)C)NC(C)=O (stereo not drawn) [LLM] (Ac-Leu-Leu-Met-aldehyde; configuration not given here),inhibition of OP-1 induced dendritic growth,rat sympathetic neurons,Inhibition of OP-1 induced dendritic growth was also observed
same,ALK3Q233D induced decrease of SNIP-1 protein level,SNIP-1 protein level,reversed
